# Where a SMILES comes first, the peptide text is derived from it. [ ]: non-standard residue; d: D form. Phe(3-Br) = N[C@@H](Cc1cccc(Br)c1)C(=O)O; dGly(nOct) = CCCCCCCC[C@@H](N)C(=O)O; Aoc(2) = CCCCCC[C@H](N)C(=O)O; Ahp(2) = CCCCC[C@H](N)C(=O)O; NMeNle = CCCC[C@H](NC)C(=O)O; Nle = CCCC[C@H](N)C(=O)O
# Legend:
# [1] = target: T1, CCK-B receptors (CHO-CCK) (Homo sapiens, UniProt P32239); experiment: Calcium flux (Fluo-8) agonist test on CHO-CCK model cells; format: cell-based; conditions: for EC50: CHO-CCK cells; for Agonistic Activity (%) at 10 μM: compound at 10 μM, percentage of signal of 20 nM CCK8 alone
# T1 construct: expressed in transfected cells; host or cells: CHO (CHO-CCK model cells)
# T1 sequence (P32239 1-447): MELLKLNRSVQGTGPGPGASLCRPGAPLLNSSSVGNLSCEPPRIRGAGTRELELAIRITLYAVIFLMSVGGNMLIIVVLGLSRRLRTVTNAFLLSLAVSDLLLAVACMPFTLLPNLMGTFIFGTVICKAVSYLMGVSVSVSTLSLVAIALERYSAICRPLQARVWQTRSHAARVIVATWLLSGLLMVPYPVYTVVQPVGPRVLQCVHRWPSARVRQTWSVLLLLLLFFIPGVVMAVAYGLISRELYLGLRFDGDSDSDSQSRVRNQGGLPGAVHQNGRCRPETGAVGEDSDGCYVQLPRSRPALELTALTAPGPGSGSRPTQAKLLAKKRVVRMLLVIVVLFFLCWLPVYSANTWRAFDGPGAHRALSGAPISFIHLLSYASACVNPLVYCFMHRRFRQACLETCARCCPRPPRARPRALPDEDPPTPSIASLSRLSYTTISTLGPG
# Outline: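 Agonist-mode Fluo-8 calcium flux read on CHO-CCK cells after dye loading 30 min at 37 °C plus 30 min at room temperature.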
# [2] = target: T1, CCK-B receptors (CHO-CCK); experiment: Calcium flux (Fluo-8) antagonist test on CHO-CCK model cells in presence of CCK8; format: cell-based
# [3] = Fluo-8 calcium flux, 100% control = 20 nM CCK8
# [4] = compound alone, 100% = 20 nM CCK8
# [5] = compound together with 10 nM CCK8
# [6] = compound together with 10 nM CCK8, bound in μM
structure (smiles),measurement,setting,value
"CCCCCCCC[C@@H](NC(C)=O)C(=O)N[C@@H](CCCC)C(=O)N[C@@H](CCC(=O)O)C(=O)N[C@@H](Cc1cccc(Br)c1)C(N)=O [HT-265, Ac-Da-Nle-Glu-Phe(3-Br)-NH2] (Ac-[dGly(nOct)][Nle]E[Phe(3-Br)]-NH2)",EC50,[1]; [3],13 µM
same,EC50,"[2]; in presence of 10 nM CCK8, bound in μM",> 10 µM
"CSCC[C@H](NC(=O)[C@H](Cc1c[nH]c2ccccc12)NC(=O)CNC(=O)[C@H](CCSC)NC(C)=O)C(N)=O [HT-210, Ac-Met-Gly-Trp-Met-NH2] (Ac-MGWM-NH2)",EC50,[1]; [3],0.398 µM
same,EC50,[2]; in presence of 10 nM CCK8,6.45 µM
"CCCC[C@H](NC(=O)[C@H](Cc1c[nH]c2ccccc12)N(C)C(=O)CNC(=O)OCC1c2ccccc2-c2ccccc21)C(=O)N[C@@H](CC(=O)O)C(=O)N[C@@H](Cc1cccc(Br)c1)C(N)=O [HT-250, Fmoc-Gly-(N-Me-D-Trp)-Nle-Asp-Phe(3-Br)-NH2]",EC50,[1]; [3],0.386 µM
same,EC50,[2]; in presence of 10 nM CCK8,2.85 µM
"CSCC[C@H](NC(=O)[C@H](N)Cc1c[nH]c2ccccc12)C(=O)N[C@@H](CC(=O)O)C(=O)N[C@@H](Cc1cccc(F)c1)C(N)=O [HT-27, D-Trp-Met-Asp-Phe(3-F)-NH2]",EC50,[1]; [4],0.155 µM
same,Agonistic Activity (%) at 10 μM,[1],79.08%
same,EC50,[2]; [5],1.34 µM
"CCCCCC[C@H](NC(=O)[C@H](Cc1c[nH]c2ccccc12)NC(C)=O)C(=O)N[C@@H](CC(=O)O)C(=O)N[C@@H](Cc1cccc(Br)c1)C(N)=O [HT-259, Ac-D-Trp-Oa-Asp-Phe(3-Br)-NH2] (Ac-W[Aoc(2)]D[Phe(3-Br)]-NH2)",EC50,[1]; [3],0.00229 µM
same,EC50,[2]; in presence of 10 nM CCK8,0.0592 µM
"CCCCC[C@H](NC(=O)[C@@H](Cc1c[nH]c2ccccc12)NC(C)=O)C(=O)N[C@@H](CC(=O)O)C(=O)N[C@@H](Cc1cccc(Br)c1)C(N)=O [HT-257, Ac-D-Trp-Pa-Asp-Phe(3-Br)-NH2] (Ac-[dW][Ahp(2)]D[Phe(3-Br)]-NH2)",EC50,[1]; [3],0.00334 µM
same,EC50,[2]; in presence of 10 nM CCK8,0.132 µM
"CSCC[C@H](NC(=O)[C@H](N)Cc1c[nH]c2ccccc12)C(=O)N[C@@H](CC(=O)O)C(=O)N[C@@H](Cc1cc(F)cc(F)c1)C(N)=O [HT-39, D-Trp-Met-Asp-Phe(3,5-DiF)-NH2]",EC50,[1]; [4],0.0442 µM
same,Agonistic Activity (%) at 10 μM,[1],119.04%
same,EC50,[2]; [5],0.631 µM
"CCCCCCC[C@H](NC(=O)[C@H](Cc1c[nH]c2ccccc12)NC(C)=O)C(=O)N[C@@H](CC(=O)O)C(=O)N[C@@H](Cc1cccc(Br)c1)C(N)=O [HT-260, Ac-D-Trp-Na-Asp-Phe(3-Br)-NH2]",EC50,[1]; [3],0.16 µM
same,EC50,[2]; in presence of 10 nM CCK8,2.74 µM
"CCCC[C@H](NC(=O)[C@@H](Cc1c(C)[nH]c2ccccc12)NC(C)=O)C(=O)N[C@@H](CCC(=O)O)C(=O)N[C@@H](Cc1cn(C)c2ccccc12)C(N)=O [HT-247, Ac-(2-Me-Trp)-Nle-Glu-(1-Me-Trp)-NH2]",EC50,[1]; [3],1.9 µM
same,EC50,[2]; in presence of 10 nM CCK8,0.62 µM
"CCCC[C@H](NC(=O)[C@@H](Cc1cn(C)c2ccccc12)NC(C)=O)C(=O)N[C@@H](CC(=O)O)C(=O)N[C@@H](Cc1c(C)[nH]c2ccccc12)C(N)=O [HT-233, Ac-(1-Me-Trp)-Nle-Asp-(2-Me-Trp)-NH2]",EC50,"[1]; Fluo-8 calcium flux, bound in μM",> 10 µM
same,EC50,[2]; in presence of 10 nM CCK8,3.65 µM
"CS(=O)(=O)CC[C@H](NC(=O)[C@H](N)Cc1c[nH]c2ccccc12)C(=O)N[C@@H](CC(=O)O)C(=O)N[C@@H](Cc1ccc(N=[N+]=[N-])cc1)C(N)=O [HT-65, D-Trp-Met(O2)-Asp-Phe(4-N3)-NH2]",Agonistic Activity (%) at 10 μM,[1],8.35%
same,EC50,[2]; [6],> 10 µM
"CS(=O)(=O)CC[C@H](NC(=O)[C@H](N)Cc1c[nH]c2ccccc12)C(=O)N[C@@H](CC(=O)O)C(=O)N[C@@H](Cc1cccc(Cl)c1)C(N)=O [HT-60, D-Trp-Met(O2)-Asp-Phe(3-Cl)-NH2]",EC50,[1]; [4],9.24 µM
same,Agonistic Activity (%) at 10 μM,[1],50.72%
same,EC50,[2]; [5],6.61 µM
"CCCC[C@@H](C(=O)N[C@@H](CC(=O)O)C(=O)N[C@@H](Cc1cccc(Br)c1)C(N)=O)N(C)C(=O)[C@@H](Cc1c[nH]c2ccccc12)NC(C)=O [HT-179, Ac-D-Trp-(N-Me-Nle)-Asp-Phe(3-Br)-NH2] (Ac-[dW][NMeNle]D[Phe(3-Br)]-NH2)",EC50,[1]; [4],1.63 µM
same,EC50,[2]; [6],> 10 µM
"CSCC[C@H](NC(=O)[C@@H](Cc1cc2ccccc2[nH]1)NC(=O)[C@@H](N)CCC(=O)O)C(=O)N[C@@H](CC(=O)O)C(=O)N[C@@H](Cc1cccc(Br)c1)C(N)=O [HT-255, Glu-D-Trp-Met-Asp-Phe(3-Br)-NH2]",EC50,[1]; [3],0.000569 µM
same,EC50,[2]; in presence of 10 nM CCK8,0.0403 µM
"CSCC[C@H](NC(=O)[C@@H](Cc1c[nH]c2ccccc12)NC(C)=O)C(=O)N[C@@H](CC(N)=O)C(=O)N[C@@H](Cc1cccc(Br)c1)C(N)=O [HT-187, Ac-D-Trp-Met-Asn-Phe(3-Br)-NH2] (Ac-[dW]MN[Phe(3-Br)]-NH2)",EC50,"[1]; compound alone, bound in μM",> 10 µM
same,EC50,[2]; [6],> 10 µM
